Experimental findings from patent US4264736A, “Antibiotic 890A10” (Merck & Co., Inc., priority 1979, dated 1981) are described below.

Data set [1] has as its system Pseudomonas aeruginosa MB No. 979. As to the kind of experiment: Antibiotic spectrum profile, agar zone of inhibition. The class given is cell-based. The note with it: MBNO.979, 0.015 ml of 9.5 μg/ml aqueous solution, 25° C., read-out: Inhib. Zone Diam.
Data set [2] relates to Bacillus subtilis ATCC 6633. Described as above. Type of data set: cell-based. The note with it: ATCC6633, 0.015 ml of 9.5 μg/ml aqueous solution, 25° C., read-out: Inhib. Zone Diam.
The subject of data set [3] is Sarcina lutea ATCC 9341. Described as above. The note with it: Micrococcus luteus, ATCC9341, 0.015 ml of 9.5 μg/ml aqueous solution, 25° C., read-out: Inhib. Zone Diam. Type of data set: cell-based.
The subject of data set [4] is Staphylococcus aureus MB No. 698. The data set is described as above. Type of data set: cell-based. The note with it: MBNO.698, 0.015 ml of 9.5 μg/ml aqueous solution, 25° C., read-out: Inhib. Zone Diam.
The subject of data set [5] is Streptococcus faecalis MB No. 753. The data set is described as above. The note with it: Enterococcus faecalis, MBNO.753, 0.015 ml of 9.5 μg/ml aqueous solution, 25° C., read-out: Inhib. Zone Diam. The class given is cell-based.
Data set [6] concerns Alcaligenes faecalis ATCC 213. Described as above. The class given is cell-based. The note with it: ATCC213, 0.015 ml of 9.5 μg/ml aqueous solution, 25° C., read-out: Inhib. Zone Diam.
For data set [7], the system named is Salmonella gallinarum MB No. 1287. The description is as above. Type of data set: cell-based. The settings on record: Salmonella enterica, 0.015 ml of 9.5 μg/ml aqueous solution, 25° C., read-out: Inhib. Zone Diam.
The test system of data set [8] is Xanthomonas vesicatoria MB No. 815. Described as above. The class given is cell-based. The note with it: MBNO.815, 0.015 ml of 9.5 μg/ml aqueous solution, 25° C., read-out: Inhib. Zone Diam.
For data set [9], the system named is Pseudomonas stutzeri ATCC 11607. The description is as above. The settings on record: Stutzerimonas stutzeri, ATCC11607, 0.015 ml of 9.5 μg/ml aqueous solution, 25° C., read-out: Inhib. Zone Diam. The class given is cell-based.
The subject of data set [10] is Pseudomonas aeruginosa MB No. 2824. Described as above. The class given is cell-based. The settings on record: MBNO.2824, 0.015 ml of 9.5 μg/ml aqueous solution, 25° C., read-out: Inhib. Zone Diam.
Data set [11] deals with Escherichia coli ATCC 9637. The data set is described as above. The settings on record: ATCC9637, 0.015 ml of 9.5 μg/ml aqueous solution, 25° C., read-out: Inhib. Zone Diam. Type of data set: cell-based.
In data set [12] the test system is Vibrio percolans MB No. 2566 (res. ceph C). The description is as above. The note with it: Comamonas terrigena, read-out: Inhib. Zone Diam. The class given is cell-based.
The subject of data set [13] is Proteus vulgaris MB No. 2112 (episome). The description is as above. The class given is cell-based. The note with it: read-out: Inhib. Zone Diam.
Data set [14] deals with Vibrio percolans ATCC 8461. The experiment in a line: Antibiotic spectrum profile, agar zone of inhibition, with penicillinase. The class given is cell-based. The settings on record: Comamonas terrigena, ATCC8461; 0.015 ml of 9.5 μg/ml aqueous solution; 25° C.; Vibrio Percolans ATCC 8461 + 2×10^5 u/ml penicillinase; read-out: Inhib. Zone Diam.
Data set [15] can be described thus: Stability in aqueous solution under acidic conditions. Type of data set: physicochemical. The note with it: free acid form not isolated.
Data set [16] has as its system Vibrio percolans ATCC 8461. As to the kind of experiment: Bioassay, agar plate disc-diffusion, 890A1 standard. The class given is cell-based. The settings on record: measured against standard of antibiotic 890A1 (defined as 250 units per HAEA300 unit). The protocol:
An agar plate disc-diffusion method is employed using Vibrio percolans ATCC 8461 as tester organism. A purified sample of antibiotic 890A1 is used as standard. Antibiotic 890A1 is prepared according to the procedure set forth in Example 6.
Plates containing Vibrio percolans ATCC 8461 are prepared as follows:
A lyophilized culture of Vibrio percolans ATCC 8461 is suspended in 15 ml. of a sterilized medium containing 8 g./liter of Difco Nutrient Broth and 2 g./liter of yeast extract in distilled water "nutrient broth-yeast extract" (herein after designated NBYE). The culture is incubated overnight on a rotary shaker at 28° C. This culture is used to inoculate the surface of slants containing 1.5% agar in NBYE, and the inoculated slants are incubated overnight at 28° C., and then stored in a refrigerator. […]
Filter paper discs of one-half inch diameter are dipped into the solution to be assayed, and are placed on the agar. […] The diameter of the zone of inhibition is measured after appropriate incubation (12-14 hours at 25° C.). […]
Calculations of potencies proceed as follows: a slope is determined by measuring the zone diameters of a solution of antibiotic 890A10 and of a fourfold dilution (in KPB) of this solution. Two discs of each concentration are assayed on a single plate, and the average zone size at each concentration is determined. […] Potencies are then calculated by the formula: [formula] […]

Data set [17] relates to various gram-positive and gram-negative bacteria. As to the kind of experiment: Antibacterial activity (statement). Type of data set: cell-based.

As to `CC(=O)NCCSC1=C(C(=O)O)N2C(=O)C(C(C)OS(=O)(=O)O)C2C1` (centres unmarked) [Antibiotic 890A10], the zone of inhibition at 9.5 µg/mL was 0 mm in data set [1]; 30 mm in [2]; 33 mm in data set [3]; 23 mm in [4]; 0 mm in [5]; 24 mm in data set [6]. Moreover, the zone of inhibition at 9.5 µg/mL in data set [7] stood at 28 mm; in [8] it was 20 mm; in [9], 0 mm; in data set [10] it was 0 mm; in data set [11], 17 mm; in [12], 22 mm. For the same compound, the zone of inhibition at 9.5 µg/mL in data set [13] worked out at 30 mm; in data set [14], 25 mm. The “stability under acidic conditions in aqueous solution” value in [15] is “unstable”. Also, the “bioassay units per HAEA300 unit” value in data set [16] is reported as 174 bioassay units per HAEA300 unit. For the same compound, in data set [17], the antibacterial activity result was “active against various gram-positive and gram-negative bacteria”.
